Measured values from patent US10807960B2, “Compounds, compositions, and methods for controlling biofilms” (KATHOLIEKE UNIVERSITEIT LEUVEN, priority 2015, dated 2020).
Like-named read-outs stand apart in the source and are kept apart here.

Key:
osteoblasts (OB) [1] = test: mammalian-cell viability assay, trypan blue staining; format: cell-based; settings: 12.5 μM, 6 days exposure
Experimental: (§1) Cell viability of two human primary cell types, namely, osteoblasts (OB) and bone-marrow derived mesenchymal stem cells (MSC) was tested according to the ISO 10993-5 standard, as previously described. Briefly, cells were seeded in 96-well tissue culture test plates (TPP, Switzerland) at 5×10^3 cells/cm^2 in Advanced DMEM cell culture media supplemented with 10% serum, 1× GlutaMAX, 0.05 mg/mL Gentamycin, and were allowed to attach overnight. The next day, the cells were exposed to (i) cell culture medium and medium with the corresponding control (0.5% ethanol or DMSO) (negative controls), (ii) medium with 0.05% phenol (cytotoxic control), and (iii) medium with compounds (12.5 μM) and incubated for 2 h, 48 h and 6 days (8 repeats for each condition). At each time-point the numbers of viable and dead cells were determined directly by trypan blue staining, and indirectly by measuring the metabolic activity with MTT (3-(4,5-dimethylthiazol-2-yl)-2,5-diphenyltetrazolium bromide) staining.
(§2) The medium was removed from the wells, and 1/3 trypan blue in Dulbecco's modified Eagle's medium (DMEM) was added to the cells, incubated for 3 min, after which trypan blue was removed and DMEM medium was added to the wells. In each of four wells, two microscopy fields were counted for viable (transparent) and dead (blue) cells.

[2] = system: bone-marrow derived mesenchymal stem cells (MSC); test: as above; format: cell-based; settings: 12.5 μM, 6 days exposure
Experimental: as §1, §2

osteoblasts (OB) [3] = test: osteogenic differentiation, calcium and DNA assay; format: cell-based, human; settings: 12.5 μM, calcium content normalized by DNA, versus solvent control
Experimental: (§3) The effect on osteogenic differentiation potential was assessed as previously described. Only the substances that allowed survival of the cells for more than 3 weeks, which is the time needed for mature osteogenic differentiation, were tested. Briefly, osteoblasts and bone-marrow derived mesenchymal stem cells were cultured in a positive solvent control (osteogenic medium with 0.5% DMSO or ethanol background), a negative control (medium without osteogenic supplements) and treated samples (osteogenic medium, 0.5% DMSO or ethanol background and 12.5 μM of test compound) with four repeats per condition. Mesenchymal stem cells and osteoblast cell cultures were harvested after 3 or 5 weeks, respectively, for the calcium and DNA assay.
(§4) Calcium deposition of osteoblasts and mesenchymal stem cells was measured with the Calcium CPC LiquiColor test (Stanbio Laboratory, Boerne, Tex.) as previously described. Briefly, cell cultures were extracted with 5% trichloroacetic acid (500 μl per sample), O-cresolphtalein complex was added, and the calcium content was determined spectrophotometrically at 550 nm. DNA content was determined as previously described. DNA values were used to normalize the calcium content. Four wells per condition were examined, and two samples from each well were taken for each assay.

[4] = system: bone-marrow derived mesenchymal stem cells (MSC); test: osteogenic differentiation, calcium and DNA assay; format: cell-based, human; settings: 12.5 μM, calcium content normalized by DNA, versus solvent control
Experimental: as §3, §4

[5] = system: C. albicans SC5314 + S. epidermidis; test: mixed C. albicans/S. epidermidis biofilm assay, selective plating; format: cell-based, Candida albicans; Staphylococcus epidermidis; settings: for activity at 25 µM: 25 μM (Table 5); for activity at 100 µM: 100 μM (Table 5)
Experimental: The concentrations 25 μM (0.0625% DMSO or ethanol) and 100 μM (0.25% DMSO or ethanol) were tested. After 24 h of incubation at 37° C., biofilms were washed with PBS and fresh medium with or without compounds was added. After further incubation for 48 h at 37° C., the biofilms were washed with PBS after which the cells were re-suspended in 100 μl of PBS by scraping off, sonication (1 min, 45 kHz, USC300-T; VWR, Radnor, Pa., USA) and vigorously pipetting up-and-down. Finally, the biofilm cells were diluted in PBS and plated on YPD agar plates containing 100 mg/L ampicillin and TSA plates containing 25 mg/L amphotericin B, to determine the number of fungal and bacterial CFUs after 2 days of incubation at 37° C., respectively. The percentage of C. albicans SC5314 and S. epidermidis cells was determined relative to the DMSO or ethanol control treatment.

osteoblasts (OB) [6] = test: metabolic activity, MTT staining; format: cell-based; settings: 12.5 μM, 6 days treatment
Experimental: as §1
(§5) The medium was removed from the wells and 100 μl of medium, supplemented with 10% serum and 0.5 mg/mL MTT was added to the cells. The cells were incubated overnight at 37° C. and 5% CO2. The next day the medium with MTT was removed and 100 μl acidic isopropanol was added. The cells were then centrifuged at 2300 g and 50 μl of the supernatant was transferred to a new 96-well plate. The absorbance was measured at 570 nm and the background was measured at 660 nm. Four wells per condition were examined.

[7] = system: bone-marrow derived mesenchymal stem cells (MSC); test: metabolic activity, MTT staining; format: cell-based; settings: 12.5 μM, 6 days treatment
Experimental: as §1, §5

C. albicans SC5314 = test: inhibition of C. albicans biofilms, cell titer blue (CTB) quantification; format: cell-based, Candida albicans; settings: monospecies biofilm; novel compounds: highest concentration tested 100 μM
Experimental: The potential of the compounds to prevent C. albicans SC5314 biofilm formation was assessed using the cell titer blue (CTB) quantification method (26). For the CTB method, an overnight culture of C. albicans SC5314 was washed with PBS and a cell suspension of 10^6 cells/ml (OD600=0.1) was prepared in RPMI 1640 medium (pH 7.0). […] After 16 h of static incubation at 37° C., biofilms were washed and quantified with CTB as described previously.

[8] = C. albicans in mixed biofilm with S. epidermidis, read-out: CFUs % survival C.a.

metabolic activity compared to the solvent control (in words) (osteoblasts (OB) [6])	metabolic activity compared to the solvent control (in words) [7]	Compound	proliferation (in words) (osteoblasts (OB) [1])	proliferation (in words) [2]	calcium deposition (in words) (osteoblasts (OB) [3])	calcium deposition (in words) [4]	activity at 25 µM [5, 8]	activity at 100 µM [5, 8]	activity at 25 µM ([5]; S. epidermidis in mixed biofilm with C. albicans, read-out: CFUs % survival S.c.)	activity at 100 µM ([5]; S. epidermidis in mixed biofilm with C. albicans, read-out: CFUs % survival Se.)	effect on the C. albicans/S. epidermidis mixture (in words) [5]	anti-biofilm activity (in words) (C. albicans SC5314)
increased	increased	CCCCCCCCn1c(-c2ccc(Br)cc2)cnc1NC1CCCC1 [Compound 8g, 5-(4-bromophenyl)-N-cyclopentyl-1-octyl-1H-imidazol-2-amine]	increase in proliferation	slightly reduced	induced the calcium deposition	induced the calcium deposition	3.3%	5.9%	0%	0%	–	–
increased	increased	CCCCCCCCn1c(-c2ccc(Cl)c(Cl)c2)cnc1NCC(C)C [Compound 8d, 5-(3,4-dichlorophenyl)-N-isobutyl-1-octyl-1H-imidazol-2-amine]	increase in proliferation	increase in proliferation	none of the compounds negatively affected the calcium deposition	none of the compounds negatively affected the calcium deposition	2.5%	1.4%	–	–	only reduced C. albicans	not active
